{
  "source": "patent US20100120690A1",
  "about": "“Polypeptides Having Antimicrobial Activity and Polynucleotides Encoding Same” (Novozymes Adenium Biotech A/S, priority 2005, published 2010)",
  "data": [
    {"tested_on": "Staphylococcus carnosus ATCC51365", "assay": "Yeast screening assay: radial diffusion assay of yeast supernatants", "format": "cell-based", "set-up": "key: An activity of 3 is better than Plectasin; An activity of 2 corresponds to the activity of Plectasin; 1 is worse than Plectasin", "details": "yeast supernatant, clearing zone in radial diffusion assay", "method": "A range of antimicrobial polypeptides, which are variants of SEQ ID NO: 1 (Plectasin), were tested for antimicrobial activity by expressing them in S. cerevisae and screening the supernatant of the yeast transformants for antimicrobial activity against Staphylococcus carnosus ATCC51365.\nRadial Diffusion Assay was carried out as described in Methods in Molecular Biology, Vol. 78, Antibacterial peptide protocol, William M. Shafer, Human Press.\n200-300 yeast transformant colonies were plated on 14 cm round plates containing 25 mL SC growth medium supplemented with 1.5% galactose, 0.5% glucose and 1.5% agarose. Plates were incubated for three hours at room temperature, overlaid with 25 mL of the same growth medium and allowed to grow for three days at 30° C. Then the plates were overlaid with 25 mL of LB growth medium containing 1.5% agarose and 10^5 cells of the indicator strain Staphylococcus carnosus and incubated at 30° C. overnight to allow growth of the bacterial cells. Next day, the plates were stained with 1.5 mM MTT to facilitate visualization of the clearing zones.\nYeast colonies creating clearing zones were transferred to microtiter plates containing 200 micro-L of SC growth medium supplemented with 2% glucose and ampicillin (100 mg/L). Such plates designated “master plates” were incubated for 2 days at 30° C. with shaking at 450 rpm to allow yeast growth.\n10 micro-L SC growth medium from each well of the master plates were transferred to new microtiter plates containing 200 micro-L SC growth medium with 1.5% galactose and 0.5% glucose. These plates were called daughter plates and were incubated for 3 days at 30° C. under 450 rpm shaking to allow yeast growth and peptide synthesis.\nFinally a Radial Diffusion Assay (RDA) was performed following the protocol described in Methods in Molecular Biology to analyse and quantify the antimicrobial activity of the yeast supernatants against S. carnosus.\nBriefly, 30 mL of minimal underlay medium containing 1% agarose and 5×10^5 cfu/mL of S. carnosus was poured in an omnitray plate (Nunc, 242811). A Nunc TSP plate (#445497) was inserted immediately on the plate to allow a 96 well pattern formation. Once the media had solidified, the TSP plate was removed and 10 micro-L of yeast supernatant samples were applied on the holes. Plates were incubated 3 hours at 37° C. and overlaid with 15 mL of LB agar growth medium. Finally, plates were incubated overnight at 37° C. and coloured with 1.5 mM MTT to visualize the clearing zones.\nInspection and measurements of the clearing zones was performed on the plates. The corresponding yeast clones resulting in clearing zones of similar or increased size than the clones encoding for wild type plectasin were picked from the master plates and transferred to agar plates containing SC growth medium with 2% glucose and ampicillin (100 mg/L). Such plates were incubated for further 2 days at 30° C. to allow yeast growth. Subsequently, colony PCR was performed followed by sequence analysis to identify amino acid changes in the plectasin sequence.\nAn activity of 2 corresponds to the activity of Plectasin. An activity of 3 is better than Plectasin, and 1 is worse than Plectasin.", "values": [
      {"sequence": "GFGCKGPWDEGDMQCHNHCKSIKGYKGGYCAKGGFVCKCY [N5K + D11G]", "Activity (antimicrobial activity relative to the activity of plectasin)": 3},
      {"sequence": "GFGCLGPWDEDDMQCHNHCKSIKGYKGGYCAKGGFVCKCY [Mutation N5L]", "Activity (antimicrobial activity relative to the activity of plectasin)": 2},
      {"sequence": "GFGCMGPWDEDDMQCHNHCKSIKGYKGGYCAKGGFVCKCY [Mutation N5M]", "Activity (antimicrobial activity relative to the activity of plectasin)": 2},
      {"sequence": "GFGCNAPWDEDDMQCHNHCKSIKGYKGGYCAKGGFVCKCY [Mutation G6A]", "Activity (antimicrobial activity relative to the activity of plectasin)": 2},
      {"sequence": "GFGCNGAWDEDDMQCHNHCKSIKGYKGGYCAKGGFVCKCY [Mutation P7A]", "Activity (antimicrobial activity relative to the activity of plectasin)": 2},
      {"sequence": "GFGCNGKWDEDDMQCHNHCKSIKGYKGGYCAKGGFVCKCY [Mutation P7K]", "Activity (antimicrobial activity relative to the activity of plectasin)": 3},
      {"sequence": "GFGCNGLWDEDDMQCHNHCKSIKGYKGGYCAKGGFVCKCY [Mutation P7L]", "Activity (antimicrobial activity relative to the activity of plectasin)": 2},
      {"sequence": "GFGCNGPRDEDDMQCHNHCKSIKGYKGGYCAKGGFVCKCY [Mutation W8R]", "Activity (antimicrobial activity relative to the activity of plectasin)": 3},
      {"sequence": "GFGCNGPRDEDDRQCHNHCKSIKGYKGGYCAKGGFVCKCY [W8R + M13R]", "Activity (antimicrobial activity relative to the activity of plectasin)": 3},
      {"sequence": "GFGCNGPWAEDDMQCHNHCKSIKGYKGGYCAKGGFVCKCY [Mutation D9A]", "Activity (antimicrobial activity relative to the activity of plectasin)": 3},
      {"sequence": "GFGCNGPWCEDDMQCHNHCKSIKGYKGGYCAKGGFVCKCY [Mutation D9C]", "Activity (antimicrobial activity relative to the activity of plectasin)": 2},
      {"sequence": "GFGCNGPWDADDMQCHNHCKSIKGYKGGYCAKGGFVCKCY [Mutation E10A]", "Activity (antimicrobial activity relative to the activity of plectasin)": 2},
      {"sequence": "GFGCNGPWDCDDMQCHNHCKSIKGYKGGYCAKGGFVCKCY [Mutation E10C]", "Activity (antimicrobial activity relative to the activity of plectasin)": 2},
      {"sequence": "GFGCNGPWDEADMQCHNHCKSIKGYKGGYCAKGGFVCKCY [Mutation D11A]", "Activity (antimicrobial activity relative to the activity of plectasin)": 2},
      {"sequence": "GFGCNGPWDECDMQCHNHCKSIKGYKGGYCAKGGFVCKCY [Mutation D11C]", "Activity (antimicrobial activity relative to the activity of plectasin)": 2},
      {"sequence": "GFGCNGPWDEDDAQCHNHCKSIKGYKGGYCAKGGFVCKCY [Mutation M13A]", "Activity (antimicrobial activity relative to the activity of plectasin)": 2},
      {"sequence": "GFGCNGPWDEDDFQCHNHCKSIKGYKGGYCAKGGFVCKCY [Mutation M13F]", "Activity (antimicrobial activity relative to the activity of plectasin)": 2},
      {"sequence": "GFGCNGPWDEDDGQCHNHCKSIKGYKGGYCAKGGFVCKCY [Mutation M13G]", "Activity (antimicrobial activity relative to the activity of plectasin)": 2},
      {"sequence": "GFGCNGPWDEDDLQCHNHCKSIKGYKGGYCAKGGFVCKCY [Mutation M13L]", "Activity (antimicrobial activity relative to the activity of plectasin)": 2},
      {"sequence": "GFGCNGPWDEDDMACHNHCKSIKGYKGGYCAKGGFVCKCY [Mutation Q14A]", "Activity (antimicrobial activity relative to the activity of plectasin)": 2},
      {"sequence": "GFGCNGPWDEDDMCCHNHCKSIKGYKGGYCAKGGFVCKCY [Mutation Q14C]", "Activity (antimicrobial activity relative to the activity of plectasin)": 2},
      {"sequence": "GFGCNGPWDEDDMHCHNHCKSIKGYKGGYCAKGGFVCKCY [Mutation Q14H]", "Activity (antimicrobial activity relative to the activity of plectasin)": 3},
      {"sequence": "GFGCNGPWDEDDMICHNHCKSIKGYKGGYCAKGGFVCKCY [Mutation Q14I]", "Activity (antimicrobial activity relative to the activity of plectasin)": 2},
      {"sequence": "GFGCNGPWDEDDMKCHNHCKSIKGYKGGYCAKGGFVCKCY [Mutation Q14K]", "Activity (antimicrobial activity relative to the activity of plectasin)": 2},
      {"sequence": "GFGCNGPWDEDDMMCHNHCKSIKGYKGGYCAKGGFVCKCY [Mutation Q14M]", "Activity (antimicrobial activity relative to the activity of plectasin)": 2},
      {"sequence": "GFGCNGPWDEDDMPCHNHCKSIKGYKGGYCAKGGFVCKCY [Mutation Q14P]", "Activity (antimicrobial activity relative to the activity of plectasin)": 2},
      {"sequence": "GFGCNGPWDEDDMQCHNACKSIKGYKGGYCAKGGFVCKCY [Mutation H18A]", "Activity (antimicrobial activity relative to the activity of plectasin)": 2},
      {"sequence": "GFGCNGPWDEDDMQCHNFCKSIKGYKGGYCAKGGFVCKCY (Synthetic antimicrobial polypeptide) [Mutation H18F]", "Activity (antimicrobial activity relative to the activity of plectasin)": 2},
      {"sequence": "GFGCNGPWDEDDMQCHNHCKSIKAYKGGYCAKGGFVCKCY [Mutation G24A]", "Activity (antimicrobial activity relative to the activity of plectasin)": 2},
      {"sequence": "GFGCNGPWDEDDMQCHNHCKSIKFYKGGYCAKGGFVCKCY [Mutation G24F]", "Activity (antimicrobial activity relative to the activity of plectasin)": 2},
      {"sequence": "GFGCNGPWDEDDMQCHNHCKSIKGHKGGYCAKGGFVCKCY [Mutation Y25H]", "Activity (antimicrobial activity relative to the activity of plectasin)": 2},
      {"sequence": "GFGCNGPWDEDDMQCHNHCKSIKGKKGGYCAKGGFVCKCY [Mutation Y25K]", "Activity (antimicrobial activity relative to the activity of plectasin)": 2},
      {"sequence": "GFGCNGPWDEDDMQCHNHCKSIKGLKGGYCAKGGFVCKCY [Mutation Y25L]", "Activity (antimicrobial activity relative to the activity of plectasin)": 2},
      {"sequence": "GFGCNGPWDEDDMQCHNHCKSIKGMKGGYCAKGGFVCKCY [Mutation Y25M]", "Activity (antimicrobial activity relative to the activity of plectasin)": 2},
      {"sequence": "GFGCNGPWDEDDMQCHNHCKSIKGNKGGYCAKGGFVCKCY [Mutation Y25N]", "Activity (antimicrobial activity relative to the activity of plectasin)": 2},
      {"sequence": "GFGCNGPWDEDDMQCHNHCKSIKGQKGGYCAKGGFVCKCY [Mutation Y25Q]", "Activity (antimicrobial activity relative to the activity of plectasin)": 2},
      {"sequence": "GFGCNGPWDEDDMQCHNHCKSIKGSKGGYCAKGGFVCKCY [Mutation Y25S]", "Activity (antimicrobial activity relative to the activity of plectasin)": 2},
      {"sequence": "GFGCNGPWDEDDMQCHNHCKSIKGVKGGYCAKGGFVCKCY [Mutation Y25V]", "Activity (antimicrobial activity relative to the activity of plectasin)": 2},
      {"sequence": "GFGCNGPWDEDDMQCHNHCKSIKGYFGGYCAKGGFVCKCY [Mutation K26F]", "Activity (antimicrobial activity relative to the activity of plectasin)": 2},
      {"sequence": "GFGCNGPWDEDDMQCHNHCKSIKGYHGGYCAKGGFVCKCY [Mutation K26H]", "Activity (antimicrobial activity relative to the activity of plectasin)": 2},
      {"sequence": "GFGCNGPWDEDDMQCHNHCKSIKGYKGGACAKGGFVCKCY [Mutation Y29A]", "Activity (antimicrobial activity relative to the activity of plectasin)": 2},
      {"sequence": "GFGCNGPWDEDDMQCHNHCKSIKGYKGGFCAKGGFVCKCY [Mutation Y29F]", "Activity (antimicrobial activity relative to the activity of plectasin)": 3},
      {"sequence": "GFGCNGPWDEDDMQCHNHCKSIKGYKGGFCARGGFVCKCY [Y29F + K32R]", "Activity (antimicrobial activity relative to the activity of plectasin)": 2},
      {"sequence": "GFGCNGPWDEDDMQCHNHCKSIKGYKGGHCAKGGFVCKCY [Mutation Y29H]", "Activity (antimicrobial activity relative to the activity of plectasin)": 2},
      {"sequence": "GFGCNGPWDEDDMQCHNHCKSIKGYKGGLCAKGGFVCKCY [Mutation Y29L]", "Activity (antimicrobial activity relative to the activity of plectasin)": 2},
      {"sequence": "GFGCNGPWDEDDMQCHNHCKSIKGYKGGMCAKGGFVCKCY [Mutation Y29M]", "Activity (antimicrobial activity relative to the activity of plectasin)": 2},
      {"sequence": "GFGCNGPWDEDDMQCHNHCKSIKGYKGGRCAKGGFVCKCY [Mutation Y29R]", "Activity (antimicrobial activity relative to the activity of plectasin)": 3},
      {"sequence": "GFGCNGPWDEDDMQCHNHCKSIKGYKGGSCAKGGFVCKCY [Mutation Y29S]", "Activity (antimicrobial activity relative to the activity of plectasin)": 2},
      {"sequence": "GFGCNGPWDEDDMQCHNHCKSIKGYKGGWCAKGGFVCKCY [Mutation Y29W]", "Activity (antimicrobial activity relative to the activity of plectasin)": 3},
      {"sequence": "GFGCNGPWDEDDMQCHNHCKSIKGYKGGYCAKEGFVCKCY [Mutation G33E]", "Activity (antimicrobial activity relative to the activity of plectasin)": 2},
      {"sequence": "GFGCNGPWDEDDMQCHNHCKSIKGYKGGYCAKGGAVCKCY [Mutation F35A]", "Activity (antimicrobial activity relative to the activity of plectasin)": 2},
      {"sequence": "GFGCNGPWDEDDMQCHNHCKSIKGYKGGYCAKGGFICKCY [Mutation V36I]", "Activity (antimicrobial activity relative to the activity of plectasin)": 2},
      {"sequence": "GFGCNGPWDEDDMQCHNHCKSIKGYKGGYCAKGGFKCKCY [Mutation V36K]", "Activity (antimicrobial activity relative to the activity of plectasin)": 2},
      {"sequence": "GFGCNGPWDEDDMQCHNHCKSIKGYKGGYCAKGGFMCKCY [Mutation V36M]", "Activity (antimicrobial activity relative to the activity of plectasin)": 3},
      {"sequence": "GFGCNGPWDEDDMQCHNHCKSIKGYKGGYCAKGGFQCKCY [Mutation V36Q]", "Activity (antimicrobial activity relative to the activity of plectasin)": 2},
      {"sequence": "GFGCNGPWDEDDMQCHNHCKSIKGYKGGYCAKGGFRCKCY [Mutation V36R]", "Activity (antimicrobial activity relative to the activity of plectasin)": 2},
      {"sequence": "GFGCNGPWDEDDMQCHNHCKSIKGYKGGYCAKGGFTCKCY [Mutation V36T]", "Activity (antimicrobial activity relative to the activity of plectasin)": 3},
      {"sequence": "GFGCNGPWDEDDMQCHNHCKSIKGYKGGYCAKGGFVCHCY [Mutation K38H]", "Activity (antimicrobial activity relative to the activity of plectasin)": 2},
      {"sequence": "GFGCNGPWDEDDMQCHNHCKSIKGYKGGYCAKGGFVCKCI [Mutation Y40I]", "Activity (antimicrobial activity relative to the activity of plectasin)": 2},
      {"sequence": "GFGCNGPWDEDDMQCHNHCKSIKGYKGGYCAKGGFVCNCY [Mutation K38N]", "Activity (antimicrobial activity relative to the activity of plectasin)": 2}
    ]}
  ]
}
